Columns and labels:
[1] = Liver microsomes stability, mouse; conditions: for Predicted hepatic CL: Mouse liver microsomes, with NADPH; for Remaining Percentage (%) 0 min / Remaining Percentage (%) 60 min: Mouse; for CLint scaled at 2 μM / half-life at 2 μM / microsomal CLint at 2 μM: male, mouse, microsomes
Experimental: (§1) The objective of this study was to estimate in vitro metabolic stability of 1-12 in pooled human and male mouse liver microsomes. The concentrations of parent compounds in reaction systems were evaluated by LC-MS/MS for estimating the stability in pooled human and male mouse liver microsomes. The in vitro intrinsic clearances of test compounds were determined as well.
(§2) A master solution in the “Incubation Plate” containing phosphate buffer, ultra-pure H2O, MgCl2 solution and liver microsomes was made according to Table 3. The mixture was pre-warmed at 37° C. water bath for 5 minutes.
(§3) 40 μL of 10 mM NADPH solution was added to each well. The final concentration of NADPH was 1 mM. The negative control samples were prepared by replacing NADPH with 40 μL of ultra-pure H2O. Samples were prepared in duplicate. Negative controls were prepared in singlet.
(§4) The reaction was started with the addition of 4 μL of 200 μM exemplary test compounds or control compounds to each master solution to get the final concentration of 2 μM. This study was performed in duplicate.
(§5) Aliquots of 50 μL were taken from the reaction solution at 0, 15, 30, 45 and 60 minutes. The reaction solutions were stopped by the addition of 4 volumes of cold methanol with IS (100 nM alprazolam, 200 nM imipramine, 200 nM labetalol and 2 μM ketoprofen). Samples were centrifuged at 3,220 g for 40 minutes. Aliquot of 90 μL of the supernatant was mixed with 90 μL of ultra-pure H2O and then was used for LC-MS/MS analysis.
(§6) LC/MS analysis was performed for all samples from this study using a Shimadzu liquid chromatograph separation system equipped with degasser DUG-20A5R; solvent delivery unit LC-30AD; system controller SIL-30AC; column oven CTO-30A; CTC Analytics HTC PAL System; Mass spectrometric analysis was performed using an Triple Quad™ 5500 instrument.
(§7) All calculations were carried out using Microsoft Excel. Peak area ratios of test compound to internal standard (listed in the below table) were determined from extracted ion chromatograms.
(§8) All calculations were carried out using Microsoft Excel. Peak areas were determined from extracted ion chromatograms. The slope value, k, was determined by linear regression of the natural logarithm of the remaining percentage of the parent drug vs. incubation time curve.
(§9) The in vitro half-life (in vitro t½) was determined from the slope value:
(§10) Conversion of the in vitro t½ (min) into the in vitro intrinsic clearance (in vitro CLint, in μL/min/mg proteins) was done using the following equation (mean of duplicate determinations): […]

[2] = Liver microsomes stability, rat; conditions: for Predicted hepatic CL: Rat liver microsomes, with NADPH; for Remaining Percentage (%) 0 min / Remaining Percentage (%) 60 min: Rat; for CLint scaled at 2 μM / half-life at 2 μM / microsomal CLint at 2 μM: rat, microsomes
Experimental: as §1, §2, §3, §4, §5, §6, §7, §8, §9, §10

[3] = Liver microsomes stability, human; conditions: for Remaining Percentage (%) 0 min / Remaining Percentage (%) 60 min: Human; for CLint scaled at 2 μM / half-life at 2 μM / microsomal CLint at 2 μM: human, microsomes
Experimental: as §1, §2, §3, §4, §5, §6, §7, §8, §9, §10

[4] = biological target: human 5-HT2A receptor (Homo sapiens (Human), UniProt P28223); assay: Radioligand binding assay ([3H]-ketanserin) on human 5-HT2A receptor; conditions: [3H]-ketanserin competition; read-out: h5-HT2A IC50
Experimental: • i. The assay buffer was prepared following the table below;
• ii. 8 doses of reference and exemplary test compounds were prepared starting from 10 mM stock solution as requested by 5-fold serial dilutions with 100%; • iii. (v/v) DMSO was prepared: a. 50 μl/well of 0.5% (v/v) PEI was added to UniFilter-96 GF/B plates. The plates were sealed and incubates at 4° C. for 3 hrs; b. After incubation, the plates were washed 3 times with ice-cold wash buffer (50 mM Tris, pH7.4); • iv. Preparation of assay plates: a. Cell membrane was diluted with assay buffer and 330 μl/well was added to 96 round deep well plates to reach a concentration of 20 μg/well; b. 8 concentrations of reference or exemplary test compounds were prepared and added 110 μl/well to 96 round deep well plates; c. [3H]-ketanserin was diluted with assay buffer to 5 nM (5× final concentration) and added 110 μl/well to 96 round deep well plates. • v. The plate were centrifuged at 1000 rpm for 30 secs and then agitated at 600 rpm, R.T. for 5 min. • vi. The plates were sealed and incubated at 27° C. for 90 min. • vii. The incubation was stopped by vacuum filtration onto GF/B filter plates followed by 4 times washing with ice-cold wash buffer (50 mM Tris, pH7.4). • vii. […] The filter plates were sealed and 40 μl/well of scintillation cocktail added. • x. The plate was read by using a Microbeta2 microplate counter.
For reference and exemplary test compounds, the results are expressed as % Inhibition, using the normalization equation: N=100−100×(U−C2)/(C1−C2), where U is the unknown value, C1 is the average of high controls, and C2 is the average of low controls. The IC50 was determined by fitting percentage of inhibition as a function of compound concentrations with Hill equation using XLfit.

[5] = biological target: human 5-HT2A (h5-HT2A) receptor (Homo sapiens (Human), UniProt P28223); assay: FLIPR assay, human 5-HT2A receptor under agonist mode; type: cell-based; conditions: FLIPR calcium
Experimental: I. Assessment of the Activated Effect of Exemplary Compounds of Formula I Targeting on Human 5-HT2A (h5-HT2A) Receptor Under Agonist Mode:
1. the Cells were cultured in cell culture medium (DMEM containing 10% FBS 1×penicillin-streptomycin 300 μg/ml G418 and 100 μg/ml hygromycin B) at 37° C., 5% (v/v) CO2.
2. One day before the assays, the cells were detached using TrypLE™ Express and cells were counted using cell counter.
3. 20000 cells/well were seeded in 30 μl/well culture medium to a 384-well cell plate and the cells were incubated overnight at 37° C., 5% (v/v) CO2.
4. On the assay day, 2× dye solution was prepared following the manual of the FLIPR® Calcium 6 Assay Kit: i. The dye was diluted with assay buffer(20 mM HEPES in 1×HBSS, PH7.4); ii. Probenecid was added to the final concentration of 5 mM; iii. Vortex vigorously for 1-2 minutes.
5. Medium was removed from cell plate by flicking the cell plate on towel papers.
6. 10 μl of assay buffer and 10 μl of 2× dye solution was added to each well of the cell plate.
7. The cell plate was placed on plate shaker, and the plate was agitated at 600 rpm for 2 minutes. The plate was incubated at 37° C. for 2 hours followed by additional 15-minute incubation at 25° C.
8. 3× compound in assay buffer was prepared: a. reference compounds were diluted to required concentration with DMSO. Compounds were added to a 384-well compound plate; b. Serial dilutions were performed; c. 10 mM test compounds were added to the compound plate, 3-fold serial dilutions were performed. d. […] 20 μl/well assay buffer was added to the compound plate; f. The plate was mixed on plate shaker for 2 mins;
i. The normalized fluorescence reading (RFU) was calculated as shown below, wherein Fmax and Fmin stand for maximum and minimum of calcium signal during defined time window: RFU=Fmax−Fmin
ii. The percentage activation was calculated by using following equation: […]
iii. EC50 was calculated by fitting % activation against log of compound concentrations with Hill equation using XLfit.

[6] = Human liver microsomes, with NADPH

Structure (SMILES)	Predicted hepatic CL [1] [mL/min/kg]	Remaining Percentage (%) 0 min ([1]; With NADPH) [%]	Remaining Percentage (%) 60 min ([1]; With NADPH) [%]	Remaining Percentage (%) 0 min ([1]; Without NADPH) [%]	Remaining Percentage (%) 60 min ([1]; Without NADPH) [%]	CLint scaled at 2 μM [1] [mL/min/kg]	Predicted hepatic CL [2] [mL/min/kg]	Remaining Percentage (%) 0 min ([2]; With NADPH) [%]	Remaining Percentage (%) 60 min ([2]; With NADPH) [%]	Remaining Percentage (%) 0 min ([2]; Without NADPH) [%]	Remaining Percentage (%) 60 min ([2]; Without NADPH) [%]	CLint scaled at 2 μM [2] [mL/min/kg]	Predicted hepatic CL [3, 6] [mL/min/kg]	Remaining Percentage (%) 0 min ([3]; With NADPH) [%]	Remaining Percentage (%) 60 min ([3]; With NADPH) [%]	Remaining Percentage (%) 0 min ([3]; Without NADPH) [%]	Remaining Percentage (%) 60 min ([3]; Without NADPH) [%]	CLint scaled at 2 μM [3] [mL/min/kg]	IC50 [4] [nM]	EC50 [5] [nM]	further results
CN(C)CCc1c[nH]c2cccc(O)c12 [Psilocin, 4-hydroxy-N,N-dimethyltryptamine, reference compound]	29.00	100.00	74.57	100.00	91.98	42.8	18.53	100.00	62.68	100.00	96.98	27.9	8.64	100.00	70.16	100.00	87.13	14.8			
[2H]C1([2H])CC(c2c[nH]c3cccc(O)c23)C([2H])([2H])N1C (stereo not drawn) [Compound I-34, 3-(1-methylpyrrolidin-3-yl-2,2,5,5-d4)-1H-indol-4-ol]	38.03	100.00	63.66	100.00	96.60	65.9	23.24	100.00	51.06	100.00	85.53	40.1	4.02	100.00	88.74	100.00	80.14	4.99	1000 to 10000	< 1000	half-life at 2 μM [1]: 1.53 h; microsomal CLint at 2 μM [1]: 15.1 µL/min/mg; half-life at 2 μM [2]: 1.03 h; microsomal CLint at 2 μM [2]: 22.4 µL/min/mg; half-life at 2 μM [3]: 5.8 h; microsomal CLint at 2 μM [3]: 3.98 µL/min/mg
[2H]C1([2H])CC(c2c[nH]c3cccc(OCc4ccccc4)c23)C([2H])([2H])N1 (stereo not drawn) [Compound I-35, 4-(benzyloxy)-3-(pyrrolidin-3-yl-2,2,5,5-d4)-1H-indole]	32.19	100.00	70.91	100.00	90.87	50.1	17.94	100.00	64.09	100.00	103.32	26.6	0.00	100.00	104.21	100.00	119.60		< 1000	< 1000	half-life at 2 μM [1]: 2.02 h; microsomal CLint at 2 μM [1]: 11.5 µL/min/mg; half-life at 2 μM [2]: 1.56 h; microsomal CLint at 2 μM [2]: 14.8 µL/min/mg; T1/2 (min) ([3]; Human liver microsomes, with NADPH, 2 μM): ∞
[2H]C([2H])N1CCC(c2c[nH]c3cccc(O)c23)C1 (stereo not drawn) [Compound I-32, 3-(1-(methyl-d2)pyrrolidin-3-yl)-1H-indol-4-ol]	18.85	100.00	84.91	100.00	116.03	23.9	0.96	100.00	98.37	100.00	92.79	0.98	3.99	100.00	88.84	100.00	96.34	4.95	1000 to 10000	< 1000	half-life at 2 μM [1]: 4.24 h; microsomal CLint at 2 μM [1]: 5.45 µL/min/mg; half-life at 2 μM [2]: 42.2 h; microsomal CLint at 2 μM [2]: 0.55 µL/min/mg; half-life at 2 μM [3]: 5.86 h; microsomal CLint at 2 μM [3]: 3.94 µL/min/mg
[2H]C([2H])N1C([2H])([2H])CC(c2c[nH]c3cccc(F)c23)C1([2H])[2H] (stereo not drawn) [Compound I-41, 4-fluoro-3-(1-(methyl-d2)pyrrolidin-3-yl-2,2,5,5-d4)-1H-indole]																			1000 to 10000	1000 to 10000	
